The test system of this experiment is CD2F1 mice, L1210 leukemia ip, survival T/C. The experiment is described as follows: NCI In Vivo Anticancer Drug Screen. Data for tumor model L1210 Leukemia (intraperitoneal) in CD2F1 (CDF1) mice. The conditions noted are these: higher = longer survival. The gist of the method: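 Mice carrying a transplanted tumor received test compound or vehicle alone. The value is the measurement in the treated group divided by that in the vehicle-treated control group.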

[1] abbreviates: endpoint: mean survival time, dose: 100.0 mg/kg/injection, schedule: Q01DX001 (ip), vehicle: saline.
[2] abbreviates: endpoint: mean survival time, dose: 200.0 mg/kg/injection, schedule: Q01DX001 (ip), vehicle: saline.
Where [3] appears, read: endpoint: mean survival time, dose: 100.0 mg/kg/injection, schedule: Q04DX003 (ip), vehicle: saline with Tween-80.
Setting [4] is: endpoint: mean survival time, dose: 200.0 mg/kg/injection, schedule: Q04DX003 (ip), vehicle: saline with Tween-80.
Setting [5] is: endpoint: mean survival time, dose: 400.0 mg/kg/injection, schedule: Q04DX003 (ip), vehicle: saline with Tween-80.
Where [6] appears, read: endpoint: mean survival time, dose: 12.5 mg/kg/injection, schedule: Q01DX009 (ip), vehicle: saline with Tween-80.
[7] abbreviates: endpoint: mean survival time, dose: 12.5 mg/kg/injection, schedule: Q04DX003 (ip), vehicle: saline with Tween-80.
[8] abbreviates: endpoint: mean survival time, dose: 25.0 mg/kg/injection, schedule: Q04DX003 (ip), vehicle: saline with Tween-80.
Setting [9] is: endpoint: mean survival time, dose: 50.0 mg/kg/injection, schedule: Q04DX003 (ip), vehicle: saline with Tween-80.
Where [10] appears, read: endpoint: mean survival time, dose: 12.5 mg/kg/injection, schedule: Q01DX005 (ip), vehicle: distilled water + Tween-80.
The mark [11] stands for this setting: endpoint: mean survival time, dose: 25.0 mg/kg/injection, schedule: Q01DX005 (ip), vehicle: distilled water + Tween-80.
[12] abbreviates: endpoint: mean survival time, dose: 50.0 mg/kg/injection, schedule: Q01DX005 (ip), vehicle: distilled water + Tween-80.
The mark [13] stands for this setting: endpoint: mean survival time, dose: 100.0 mg/kg/injection, schedule: Q01DX005 (ip), vehicle: distilled water + Tween-80.

SMILES strings stand for the structures. “And” between values parts separate entries of the source, which are not always exact repeats. Identical values can stand only once. Toxic doses and inconclusive results are not listed.

Regarding `Cc1nc(-c2ccccc2)c(Cc2ccccc2O)c(=O)[nH]1`, the T/C was 97 % of control under setting [1]; 97 % of control under setting [2]; 100 % of control (endpoint: mean survival time, dose: 400.0 mg/kg/injection, schedule: Q01DX001 (ip), vehicle: saline).
Turning to `Brc1ccc(-c2ccc(Br)cc2)cc1`, the T/C was 105 % of control (endpoint: mean survival time, dose: 100.0 mg/kg/injection, schedule: Q04DX003 (ip), vehicle: Klucel (hydroxypropylcellulose) (HPC)); 95 % of control (endpoint: mean survival time, dose: 200.0 mg/kg/injection, schedule: Q04DX003 (ip), vehicle: Klucel (hydroxypropylcellulose) (HPC)); 95 % of control (endpoint: mean survival time, dose: 400.0 mg/kg/injection, schedule: Q04DX003 (ip), vehicle: Klucel (hydroxypropylcellulose) (HPC)).
For `CCOC(=O)C1OC12c1cccc3cccc(c13)C21OC1C(=O)OCC` (stereo not given), the T/C reads like this: under setting [3], 97 % of control; under setting [4], 95 % of control; under setting [5], 91 % of control.
With `CC1=C(/C=C/C(C)=C/C=C/C(C)=C/C=O)C(C)(C)CCC1`, the T/C by setting is: (endpoint: median survival time, dose: 6.25 mg/kg/injection, schedule: Q01DX005 (ip), vehicle: saline with Tween-80) 105 % of control; (endpoint: median survival time, dose: 12.5 mg/kg/injection, schedule: Q01DX005 (ip), vehicle: saline with Tween-80) 100 % of control; (endpoint: median survival time, dose: 25.0 mg/kg/injection, schedule: Q01DX005 (ip), vehicle: saline with Tween-80) 97 % of control and 103 % of control; (endpoint: median survival time, dose: 50.0 mg/kg/injection, schedule: Q01DX005 (ip), vehicle: saline with Tween-80) 100 % of control and 101 % of control; (endpoint: median survival time, dose: 100.0 mg/kg/injection, schedule: Q01DX005 (ip), vehicle: saline with Tween-80) 104 % of control.
In the case of `O=C1CC(c2ccccc2)=NO1`, the T/C is, setting by setting: (endpoint: mean survival time, dose: 100.0 mg/kg/injection, schedule: Q01DX001 (ip), vehicle: saline with Tween-80) 106 % of control; (endpoint: mean survival time, dose: 200.0 mg/kg/injection, schedule: Q01DX001 (ip), vehicle: saline with Tween-80) 101 % of control; (endpoint: mean survival time, dose: 400.0 mg/kg/injection, schedule: Q01DX001 (ip), vehicle: saline with Tween-80) 101 % of control.
Turning to `Nc1ccc2nsnc2c1`, the T/C (endpoint: mean survival time, dose: 50.0 mg/kg/injection, schedule: Q01DX001 (ip), vehicle: Klucel (hydroxypropylcellulose) (HPC)) was 105 % of control; the T/C (endpoint: mean survival time, dose: 100.0 mg/kg/injection, schedule: Q01DX001 (ip), vehicle: Klucel (hydroxypropylcellulose) (HPC)) is 90 % of control; the T/C (endpoint: mean survival time, dose: 200.0 mg/kg/injection, schedule: Q01DX001 (ip), vehicle: Klucel (hydroxypropylcellulose) (HPC)) was 103 % of control.
Turning to `O=C(/C=C\c1ccc(NCc2ccc(C(=O)O)cc2)cc1)CCl`, the T/C (endpoint: mean survival time, dose: 100.0 mg/kg/injection, schedule: Q01DX009 (ip), vehicle: saline with Tween-80) was 111 % of control; the T/C under setting [4] was 91 % of control; the T/C under setting [5] is 86 % of control.
For `O=C(O)c1ccc([N+](=O)[O-])cc1.[Ag]`, the T/C was 102 % of control (endpoint: mean survival time, dose: 3.13 mg/kg/injection, schedule: Q01DX009 (ip), vehicle: saline with Tween-80); 102 % of control (endpoint: mean survival time, dose: 6.25 mg/kg/injection, schedule: Q01DX009 (ip), vehicle: saline with Tween-80); 96 % of control (endpoint: mean survival time, dose: 6.25 mg/kg/injection, schedule: Q04DX003 (ip), vehicle: saline with Tween-80); 98 % of control under setting [6]; 96 % of control under setting [7].
In the case of `COc1ccc2c(Br)cccc2c1`, the T/C (endpoint: mean survival time, dose: 100.0 mg/kg/injection, schedule: Q04DX003 (ip), vehicle: acetone) is 102 % of control; the T/C (endpoint: mean survival time, dose: 200.0 mg/kg/injection, schedule: Q04DX003 (ip), vehicle: acetone) is 94 % of control; the T/C (endpoint: mean survival time, dose: 400.0 mg/kg/injection, schedule: Q04DX003 (ip), vehicle: acetone) is 92 % of control.
In the case of `CCOC(=O)C([NH-])CC[NH-].[Cl][Pt+2][Cl]` (stereo not given), the T/C is, setting by setting: under setting [7], 182 % of control; under setting [8], 210 % of control; under setting [9], 93 % of control.
`NC(=S)Nc1ccccn1`: the T/C was 100 % of control under setting [8], 102 % of control under setting [9] and 93 % of control under setting [3].
For `CCCN(CCC)C(=S)[S-].CCCN(CCC)C(=S)[S-].[Zn]`, the T/C was 95 % of control (endpoint: mean survival time, dose: 75.0 mg/kg/injection, schedule: Q04DX003 (ip), vehicle: saline); 86 % of control (endpoint: mean survival time, dose: 150.0 mg/kg/injection, schedule: Q04DX003 (ip), vehicle: saline); 101 % of control (endpoint: mean survival time, dose: 300.0 mg/kg/injection, schedule: Q04DX003 (ip), vehicle: saline).
Consider `CC(=O)Nc1ccc(S(=O)(=O)/N=S(\C)c2ccc(C)cc2)cc1` (stereo not given), for which the T/C was 95 % of control (endpoint: mean survival time, dose: 100.0 mg/kg/injection, schedule: Q01DX009 (ip), vehicle: Klucel (hydroxypropylcellulose) (HPC)); 89 % of control (endpoint: mean survival time, dose: 200.0 mg/kg/injection, schedule: Q01DX009 (ip), vehicle: Klucel (hydroxypropylcellulose) (HPC)); 91 % of control (endpoint: mean survival time, dose: 400.0 mg/kg/injection, schedule: Q01DX009 (ip), vehicle: Klucel (hydroxypropylcellulose) (HPC)); 92 % of control (endpoint: mean survival time, dose: 600.0 mg/kg/injection, schedule: Q01DX009 (ip), vehicle: Klucel (hydroxypropylcellulose) (HPC)).
In the case of `O=C(OCC1OC(n2cnc3cc(Cl)c(Cl)cc32)C(OC(=O)c2ccccc2)C1OC(=O)c1ccccc1)c1ccccc1` (stereo not given), the T/C was 95 % of control under setting [10], 101 % of control under setting [11], 93 % of control under setting [12] and 95 % of control under setting [13].
In the case of `NC/C(=N\O)c1ccc(Cl)cc1`, the T/C is 97 % of control under setting [1] and 103 % of control under setting [2].
As to `CC(O)C1OC(n2cnc3c(=O)[nH]c(N)nc32)C(O)C1O` (stereo not given), the T/C runs as follows: under setting [10], 101 % of control; under setting [11], 100 % of control; under setting [12], 101 % of control; under setting [13], 97 % of control; (endpoint: mean survival time, dose: 200.0 mg/kg/injection, schedule: Q01DX005 (ip), vehicle: distilled water + Tween-80) 97 % of control; (endpoint: median survival time, dose: 12.5 mg/kg/injection, schedule: Q01DX005 (ip), vehicle: distilled water + Tween-80) 112 % of control. Besides, the T/C reads like this: (endpoint: median survival time, dose: 20.0 mg/kg/injection, schedule: Q01DX005 (ip), vehicle: distilled water + Tween-80) 108 % of control; (endpoint: median survival time, dose: 50.0 mg/kg/injection, schedule: Q01DX005 (ip), vehicle: distilled water + Tween-80) 112 % of control; (endpoint: median survival time, dose: 100.0 mg/kg/injection, schedule: Q01DX005 (ip), vehicle: distilled water + Tween-80) 104 % of control; (endpoint: median survival time, dose: 200.0 mg/kg/injection, schedule: Q01DX005 (ip), vehicle: distilled water + Tween-80) 96 % of control.
As to `Cc1nc(N)[nH]c(=O)c1NC(=O)c1ccc(N=[N+]=[N-])cc1`, the T/C was 90 % of control (endpoint: mean survival time, dose: 12.5 mg/kg/injection, schedule: Q01DX001 (ip), vehicle: saline with Tween-80); 89 % of control under setting [6]; 97 % of control under setting [7]; 95 % of control (endpoint: mean survival time, dose: 25.0 mg/kg/injection, schedule: Q01DX001 (ip), vehicle: saline with Tween-80); 94 % of control (endpoint: mean survival time, dose: 25.0 mg/kg/injection, schedule: Q01DX009 (ip), vehicle: saline with Tween-80); 97 % of control under setting [8]. Further, the T/C was 94 % of control (endpoint: mean survival time, dose: 50.0 mg/kg/injection, schedule: Q01DX001 (ip), vehicle: saline with Tween-80); 91 % of control (endpoint: mean survival time, dose: 50.0 mg/kg/injection, schedule: Q01DX009 (ip), vehicle: saline with Tween-80); 96 % of control under setting [9].
With `CCC(=O)O[C@H]1CC[C@H]2[C@@H]3C[C@H](F)C4=CC(=O)CC[C@]4(C)[C@H]3CC[C@]12C`, the T/C (endpoint: mean survival time, dose: 100.0 mg/kg/injection, schedule: Q04DX003 (ip), vehicle: saline) is 102 % of control; the T/C (endpoint: mean survival time, dose: 200.0 mg/kg/injection, schedule: Q04DX003 (ip), vehicle: saline) is 95 % of control; the T/C (endpoint: mean survival time, dose: 400.0 mg/kg/injection, schedule: Q04DX003 (ip), vehicle: saline) was 95 % of control.
Turning to `C/C(C(=O)O)=C(\C)c1ccccc1`, the T/C was 92 % of control (endpoint: mean survival time, dose: 100.0 mg/kg/injection, schedule: Q04DX002 (ip), vehicle: saline with Tween-80); 103 % of control (endpoint: mean survival time, dose: 200.0 mg/kg/injection, schedule: Q04DX002 (ip), vehicle: saline with Tween-80); 103 % of control (endpoint: mean survival time, dose: 400.0 mg/kg/injection, schedule: Q04DX002 (ip), vehicle: saline with Tween-80).
